Measurements as given in patent US7504426B2, “Heterocyclic compounds” (Janssen Pharmaceutica N.V., priority 2003, dated 2009).

Key:
[1] = target: T1, human histamine H4 receptor (Homo sapiens, UniProt Q9H3N8); test: biochemical
[2] = target: T1, human histamine H4 receptor; test: Binding assay on recombinant human histamine H4 receptor (3H-histamine displacement); conditions: read-out: Binding Assay Ki; repeated in the chemotaxis table
Mast cells = test: Mast cell chemotaxis assay (histamine-induced, transwell); type: cell-based; conditions: 10 μM histamine; HR antagonist 1 μM
Experimental: Mast Cell Chemotaxis Assay
Mast cell accumulation in mucosal epithelia is a well-known characteristic of allergic rhinitis and asthma. Transwells (Costar, Cambridge, Mass.) of a pore size 8 μm were coated with 100 μL of 100 ng/mL human fibronectin (Sigma) for 2 h at room temperature. […] Mast cells (2×10^5/well) were added to the top chamber. The plates were incubated for 3 h at 37° C. Transwells were removed, and the cells in the bottom chamber were counted for sixty seconds using a flow cytometer.

human eosinophils = test: Inhibition of histamine-induced eosinophil shape change (GAFS); type: cell-based; conditions: for effect on histamine-induced shape change: human eosinophils
Experimental: Eosinophil accumulation in sites of allergic reaction is a well-known characteristic of allergic rhinitis and asthma. […] Shape change is a cellular characteristic that precedes eosinophil chemotaxis.
Human granulocytes were isolated from human blood by a Ficoll gradient. The red blood cells were lysed with 5-10X Qiagen lysis buffer at room temperature for 5-7 min. Granulocytes were harvested and washed once with FACS buffer. The cells were resuspended at a density of 2×10^6 cells/mL in reaction buffer. […] Ten minutes later the cells were transferred to ice and fixed with 250 μL of ice-cold fixative buffer (2% formaldehyde) for 1 min.
The change in shape of eosinophils is due to cytoskeletal changes that precede chemotaxis and thus is a measure of chemotaxis.

[3] = histamine 0 μM, HR antagonist 10 μM
[4] = histamine 0.01 μM, HR antagonist 10 μM or none
[5] = histamine 0.1 μM, HR antagonist 10 μM or none
[6] = histamine 1 μM, HR antagonist 10 μM or none
[7] = histamine 10 μM, HR antagonist 10 μM or none

Ki [1] [nM]	Compound	further results
25	CN1CCN(C(=O)c2nc3cc(Cl)ccc3[nH]2)CC1 [Example 6, (5-Chloro-1H-benzoimidazol-2-yl)-(4-methyl-piperazin-1-yl)-methanone]	Ki [2]: 25 nM
87	O=C(c1nc2cc(Cl)ccc2[nH]1)N1CCNCC1 [Example 7, (5-Chloro-1H-benzoimidazol-2-yl)-piperazin-1-yl-methanone]	% Inh (Mast cells): 8%; Ki [2]: 87 nM
28	CN1CCN(C(=O)c2nc3cc(F)c(F)cc3[nH]2)CC1 [Example 9, (5,6-Difluoro-1H-benzoimidazol-2-yl)-(4-methyl-piperazin-1-yl)-methanone]	Ki [2]: 28 nM
135	Cc1cccc2[nH]c(C(=O)N3CCNCC3)nc12 [Example 23, (4-Methyl-1H-benzoimidazol-2-yl)-piperazin-1-yl-methanone]	–
528	Cc1ccc2[nH]c(C(=O)N3CCN(C)CC3)nc2c1 [Example 26, (5-Methyl-1H-benzoimidazol-2-yl)-(4-methyl-piperazin-1-yl)-methanone]	–
11	CN1CCN(C(=O)c2nc3cc(C(F)(F)F)ccc3[nH]2)CC1 [Example 27, (4-Methyl-piperazin-1-yl)-(5-trifluoromethyl-1H-benzoimidazol-2-yl)-methanone]	–
420	O=C(c1nc2cc(C(F)(F)F)ccc2[nH]1)N1CCNCC1 [Example 28, Piperazin-1-yl-(5-trifluoromethyl-1H-benzoimidazol-2-yl)-methanone]	–
26	CN1CCN(C(=O)c2nc3cc(F)ccc3[nH]2)CC1 [Example 29, (5-Fluoro-1H-benzoimidazol-2-yl)-(4-methyl-piperazin-1-yl)-methanone]	–
370	CCN1CCN(C(=O)c2nc3cc(F)ccc3[nH]2)CC1 [Example 30, (4-Ethyl-piperazin-1-yl)-(5-fluoro-1H-benzoimidazol-2-yl)-methanone]	–
42	O=C(c1nc2cc(F)ccc2[nH]1)N1CCNCC1 [Example 31, (5-Fluoro-1H-benzoimidazol-2-yl)-piperazin-1-yl-methanone]	–
460	CC1CN(C(=O)c2nc3cc(F)ccc3[nH]2)CCN1 (stereo not shown) [Example 32, (5-Fluoro-1H-benzoimidazol-2-yl)-(3-methyl-piperazin-1-yl)-methanone]	–
833	CN1CCN(C(=O)c2nc3cccnc3[nH]2)CC1 [Example 34, (3H-Imidazo[4,5-b]pyridin-2-yl)-(4-methyl-piperazin-1-yl)-methanone]	–
620	CN1CCN(C(=O)c2nc3ccccc3o2)CC1 [Example 35, Benzooxazol-2-yl-(4-methyl-piperazin-1-yl)-methanone]	–
1200	Cc1cccc2nc(C(=O)N3CCN(C)CC3)oc12 [Example 36, (7-Methyl-benzooxazol-2-yl)-(4-methyl-piperazin-1-yl)-methanone]	–
1300	Cc1ccc2oc(C(=O)N3CCN(C)CC3)nc2c1 [Example 37, (5-Methyl-benzooxazol-2-yl)-(4-methyl-piperazin-1-yl)-methanone]	–
1600	Cc1cccc2oc(C(=O)N3CCN(C)CC3)nc12 [Example 38, (4-Methyl-benzooxazol-2-yl)-(4-methyl-piperazin-1-yl)-methanone]	–
810	CN1CCN(C(=O)c2nc3ccccc3s2)CC1 [Example 39, Benzothiazol-2-yl-(4-methyl-piperazin-1-yl)-methanone]	–
8000	CN1CCN(C(=O)c2nc3cc(C(=O)c4ccccc4)ccc3[nH]2)CC1 [Example 40, (5-Benzoyl-1H-benzoimidazol-2-yl)-(4-methyl-piperazin-1-yl)-methanone]	–
57	CN1CCN(C(=O)c2nc3c(Cl)cccc3[nH]2)CC1 [Example 41, (4-Chloro-1H-benzoimidazol-2-yl)-(4-methyl-piperazin-1-yl)-methanone]	–
110	CN1CCN(C(=N)c2nc3cc(Cl)ccc3[nH]2)CC1 [Example 45, C-(5-Chloro-1H-benzoimidazol-2-yl)-C-(4-methyl-piperazin-1-yl)-methyleneamine]	–
64	CN1CCN(C(=O)c2nc3c(F)cc(F)cc3[nH]2)CC1 [Example 46, (4,6-Difluoro-1H-benzoimidazol-2-yl)-(4-methyl-piperazin-1-yl)-methanone]	–
158	CN1CCN(C(=O)c2nc3cc([N+](=O)[O-])ccc3[nH]2)CC1 [Example 47, (4-Methyl-piperazin-1-yl)-(5-nitro-1H-benzoimidazol-2-yl)-methanone]	–
23	Cc1c(F)ccc2[nH]c(C(=O)N3CCN(C)CC3)nc12 [Example 48, (5-Fluoro-4-methyl-1H-benzoimidazol-2-yl)-(4-methyl-piperazin-1-yl)-methanone]	–
51	CN1CCN(C(=O)c2nc3cc(Br)ccc3[nH]2)CC1 [Example 49, (5-Bromo-1H-benzoimidazol-2-yl)-(4-methyl-piperazin-1-yl)-methanone]	–
–	CN(C)CCOC(c1ccccc1)c1ccccc1 [diphenhydramine]	Fold Change (eosinophil shape change) (human eosinophils; [3]): 1.00; Fold Change (eosinophil shape change) (human eosinophils; [4]): 1.03; Fold Change (eosinophil shape change) (human eosinophils; [5]): 1.18; Fold Change (eosinophil shape change) (human eosinophils; [6]): 1.50; Fold Change (eosinophil shape change) (human eosinophils; [7]): 1.63; effect on histamine-induced shape change (human eosinophils): did not alter the histamine-induced shape change
–	CNC(=C[N+](=O)[O-])NCCSCc1ccc(CN(C)C)o1 [ranatidine]	Fold Change (eosinophil shape change) (human eosinophils; [3]): 1.00; Fold Change (eosinophil shape change) (human eosinophils; [4]): 1.04; Fold Change (eosinophil shape change) (human eosinophils; [5]): 1.21; Fold Change (eosinophil shape change) (human eosinophils; [6]): 1.49; Fold Change (eosinophil shape change) (human eosinophils; [7]): 1.64; effect on histamine-induced shape change (human eosinophils): did not alter the histamine-induced shape change

Compound	Ki [1] [nM]	further results
Cc1cccc2[nH]c(C(=O)N[C@H]3C[C@H]4CC[C@@H](C3)N4C)nc12 [Example 24, 4-Methyl-1H-benzoimidazole-2-carboxylic acid (8-methyl-8-aza-bicyclo[3.2.1]oct-3-yl)-amide]	270	–
Cc1ccc2[nH]c(C(=O)NC3CC4CCC(C3)N4C)nc2c1 (stereo not shown) [Example 25, 5-Methyl-1H-benzoimidazole-2-carboxylic acid (8-methyl-8-aza-bicyclo[3.2.1]oct-3-yl)-amide]	613	Ki [2]: 613 nM
